# Results published in patent publication US8440424B2, “Identification of antibiotic resistance using labelled antibiotics” (miacom Diagnostics GmbH, priority 2008, dated 2013).
# Read-outs that look alike come from different tables or passages of the source.
# Tests used:
# [1] = tested on: Community acquired MRSA (CA-MRSA); assay type: binding, Staphylococcus aureus; details: CA-MRSA; binding capacity for the labelled antibiotic
# Experimental: The incubation with a labelled antibiotic may be performed at temperatures below the Tm of the hybridised probe. In a preferred embodiment the temperature is between about 25 and about 65° C., in a more preferred embodiment the temperature is between about 35° C. and about 59° C. In an even more preferred embodiment, the temperature is at about 52° C. The incubation time is preferably between about 1 and about 30 minutes. In a more preferred embodiment the incubation is made for about 15 minutes. After the incubation the slide may be submerged in 50% ethanol followed by a bath in pure ethanol. Both steps may be run for between about 1 and about 10 minutes. The preferred length of incubation is between about 2 and about 6 minutes. It is more preferred to incubate about 4 minutes. The slides may then be air-dried (e.g. on a hot plate) and the cells may be embedded in a balanced salt mounting medium.
# The amount is expressed in % change of fluorescence (decrease and increase, respectively) of an antibiotic which carries a fluorescent label.
# 23S rRNA = details: cited from earlier work
compound,measurement,setting,value
"COc1cc(Cc2cnc(N)nc2N)cc(OC)c1OC [trimethoprim, Trimethoprim]",Effect of resistance on fluorescence,[1],Maintaims binding
CC[C@H]1OC(=O)[C@H](C)[C@@H](O[C@H]2C[C@@](C)(OC)[C@@H](O)[C@H](C)O2)[C@H](C)[C@@H](O[C@@H]2O[C@H](C)C[C@H](N(C)C)[C@H]2O)[C@](C)(OC)C[C@@H](C)C(=O)[C@H](C)[C@@H](O)[C@]1(C)O [Clarithromycin],Phenotype,"23S rRNA; 23S rRNA position 2058 A to G, Helicobacter pylori",resistance
CCC[C@@H]1C[C@@H](C(=O)N[C@@H]([C@H]2O[C@H](SC)[C@H](O)[C@@H](O)[C@H]2O)[C@@H](C)O)N(C)C1 [Lincomycin],Phenotype,"23S rRNA; 23S rRNA position 2032 G to A, Tobbaco chloroplasts",resistance.
same,Phenotype,"23S rRNA; 23S rRNA position 2058 A to G, Chlamydomonas reinhardtii",resistance.
same,Phenotype,"23S rRNA; 23S rRNA position 2058 A to G, Solanum nigrum",resistance.
same,Phenotype,"23S rRNA; 23S rRNA position 2058 A to G, Tobacco chloroplasts",resistance.
same,Phenotype,"23S rRNA; 23S rRNA position 2059 A to G, Tobacco chloroplasts",resistance.
CCC[C@@H]1C[C@@H](C(=O)N[C@@H]([C@H]2O[C@H](SC)[C@H](O)[C@@H](O)[C@H]2O)[C@@H](C)O)N(C)C1 [lincomycin],Phenotype,"23S rRNA; 23S rRNA position 2611 ""C to G"", Chlamydomonas reinhardtii, Harris et al. 1989",low level
same,Phenotype,"23S rRNA; 23S rRNA position 2611 ""C to U"", Chlamydomonas reinhardtii, Harris et al. 1989",low level
CC[C@H]1OC(=O)[C@H](C)[C@@H](O[C@H]2C[C@@](C)(OC)[C@@H](O)[C@H](C)O2)[C@H](C)[C@@H](O[C@@H]2O[C@H](C)C[C@H](N(C)C)[C@H]2O)[C@](C)(O)C[C@@H](C)C(=O)[C@H](C)[C@@H](O)[C@]1(C)O [erythromycin],Phenotype,"23S rRNA; 23S rRNA double mutant (A1262G/U2017C), E. coli, growth on erythromycin",Wild-type growth on
same,Phenotype,"23S rRNA; 23S rRNA double mutant (A1262U/U2017A), E. coli, growth on erythromycin",Wild-type growth on
same,Phenotype,"23S rRNA; 23S rRNA double mutant (G1137A/G1138C), E. coli, with 2058G and erythromycin, expressed from rrnB promoter",lethal when expressed from rrnB
same,Phenotype,"23S rRNA; 23S rRNA position 1068 G to A, E. coli, with 2058G, expressed from rrnB or pL promotor in presence of erythromycin",2058G) Lethal when
same,Phenotype,"23S rRNA; 23S rRNA position 1072 C to U, E. coli, expressed from rrnB or pL promotor in presence of erythromycin",Lethal when expressed from
same,Phenotype,"23S rRNA; 23S rRNA position 1137 G to A, E. coli, with 2058G and erythromycin, expressed from rrnB promoter",lethal when expressed from rrnB
same,Phenotype,"23S rRNA; 23S rRNA position 1138 G to C, E. coli, with 2058G and erythromycin, expressed from rrnB promoter",lethal when expressed from rrnB
same,Phenotype,"23S rRNA; 23S rRNA position 1262 A to C, E. coli, with erythromycin",With erythromycin; lethal
same,Phenotype,"23S rRNA; 23S rRNA position 1262 A to G, E. coli, with erythromycin",With erythromycin; lethal
CSC[S@+]([O-])C[C@H](CO)NC(=O)/C=C/c1c(C)[nH]c(=O)[nH]c1=O [Sparsomycin],Phenotype,"23S rRNA; 23S rRNA position 2499 C to U, Halobacterium halobium, Tan 1996",resistance
C=C(NC(=O)C(=C)NC(=O)c1csc(C2=N[C@@H]3c4csc(n4)[C@H]4NC(=O)c5csc(n5)[C@H]([C@](C)(O)[C@@H](C)O)NC(=O)[C@H]5CSC(=N5)/C(=C/C)NC(=O)[C@H]([C@@H](C)O)NC(=O)c5csc(n5)[C@]3(CC2)NC(=O)[C@H](C)NC(=O)C(=C)NC(=O)[C@H](C)NC(=O)[C@H]([C@@H](C)CC)N[C@@H]2C=Cc3c([C@H](C)O)cc(nc3[C@H]2O)C(=O)O[C@@H]4C)n1)C(N)=O [thiostrepton],Phenotype: binding in RNA fragments,"23S rRNA; 23S rRNA position 1056 G to C, E. coli",weakened in RNA
same,Phenotype: drug binding affinity,"23S rRNA; 23S rRNA position 1067 A to C, E. coli",affinity is reduced similarly.
same,Phenotype: drug binding affinity,"23S rRNA; 23S rRNA position 1067 A to G, E. coli",affinity is reduced similarly.
same,Phenotype: drug binding affinity,"23S rRNA; 23S rRNA position 1067 A to U, E. coli",affinity is reduced similarly.
same,Phenotype: thiostrepton resistance in poly (U) translation,"23S rRNA; 23S rRNA position 1067 A to U, E. coli, mutant constituted 30% of the total 23S rRNA pool in the ribosomes",ribosomes; exhibited 30%
